Test results as given in patent publication US20260315464A1, “COMPOSITIONS, METHODS, AND SYSTEMS FOR MODULATING SPLICING OF MSH3” (REVIR THERAPEUTICS, INC., priority 2023, published 2026).

Tested on: MSH3
Assay: QPCR assay for levels of MSH3 upon compound treatment in HEK293T or AD293 cells (fold-change of MSH3 transcript, EC50 of MSH3 downregulation; total MSH3 exons 13/14, exons 20/21; Table 8)
Assay type: cell-based
Settings: Homo sapiens, fold-change of the MSH3 transcript, normalized to GAPDH; for mrna remaining at 1 µM: 1 μM compound; for mrna remaining at 10 µM: 10 μM compound
Summary of the method: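 HEK293T or AD293 cells were treated at 1 μM and […]; RNA-to-cDNA qPCR used TaqMan assays for total MSH3 (exons 13/14, exons 20/21) and poison-exon junctions exon 13/PE14A and exon 20/PE21A. Transcript levels were normalized to GAPDH.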

Structure (SMILES) | mrna remaining at 1 µM [%] | mrna remaining at 10 µM [%]
Cc1ncc(-c2cnc3c(c2)C(=O)N(c2ccc(O[C@H]4C[C@]5(C)CC[C@](C)(C4)N5)nn2)C3)s1 [Compound 598, 6-(6-(((1R,3s,5S)-1,5-dimethyl-8-azabicyclo[3.2.1]octan-3-yl)oxy)pyridazin-3-yl)-3-(2-methylthiazol-5-yl)-6,7-dihydro-5H-pyrrolo[3,4-b]pyridin-5-one] | 62 | 52
Cn1ncc(-c2cnc3c(c2)C(=O)N(c2ccc(O[C@H]4C[C@]5(C)CC[C@](C)(C4)N5)nn2)C3)n1 [Compound 599, 6-(6-(((1R,3s,5S)-1,5-dimethyl-8-azabicyclo[3.2.1]octan-3-yl)oxy)pyridazin-3-yl)-3-(2-methyl-2H-1,2,3-triazol-4-yl)-6,7-dihydro-5H-pyrrolo[3,4-b]pyridin-5-one] | 94 | 24
Cc1nn(C)nc1-c1cnc2c(c1)C(=O)N(c1ccc(N3CCN[C@@H](C(C)(C)C)C3)nn1)C2 [Compound 600, (S)-6-(6-(3-(tert-butyl)piperazin-1-yl)pyridazin-3-yl)-3-(2,5-dimethyl-2H-1,2,3-triazol-4-yl)-6,7-dihydro-5H-pyrrolo[3,4-b]pyridin-5-one] | 104 | 14
Cn1ncc(-c2cnc3c(c2)C(=O)N(c2ccc(OC4CC(C)(C)NC5(CCC5)C4)nn2)C3)n1 (stereo not shown) [Compound 601, 6-(6-((6,6-dimethyl-5-azaspiro[3.5]nonan-8-yl)oxy)pyridazin-3-yl)-3-(2-methyl-2H-1,2,3-triazol-4-yl)-6,7-dihydro-5H-pyrrolo[3,4-b]pyridin-5-one] | 117 | 82
Cc1nn(C)cc1-c1cnc2c(c1)C(=O)N(c1ccc(N3CCN[C@@H](C(C)C)C3)nn1)C2 [Compound 602, (S)-3-(1,3-dimethyl-1H-pyrazol-4-yl)-6-(6-(3-isopropylpiperazin-1-yl)pyridazin-3-yl)-6,7-dihydro-5H-pyrrolo[3,4-b]pyridin-5-one] | 64 | 29
Cc1nn(C)nc1-c1cnc2c(c1)C(=O)N(c1ccc(N3CCC4(CCCN4)CC3)nn1)C2 [Compound 603, 6-(6-(1,8-diazaspiro[4.5]decan-8-yl)pyridazin-3-yl)-3-(2,5-dimethyl-2H-1,2,3-triazol-4-yl)-6,7-dihydro-5H-pyrrolo[3,4-b]pyridin-5-one] | 155 | 94
CN(c1ccc(N2Cc3ncc(-c4cnn(CC(C)(C)O)c4)cc3C2=O)nn1)[C@H]1C[C@]2(C)CC[C@](C)(C1)N2 [Compound 604, 6-(6-(((1R,3s,5S)-1,5-dimethyl-8-azabicyclo[3.2.1]octan-3-yl)(methyl)amino)pyridazin-3-yl)-3-(1-(2-hydroxy-2-methylpropyl)-1H-pyrazol-4-yl)-6,7-dihydro-5H-pyrrolo[3,4-b]pyridin-5-one] | 63 | 93
Cn1nc(Cl)c(-c2cnc3c(c2)C(=O)N(c2ccc(O[C@@H]4CCC(C)(C)NC(C)(C)C4)nn2)C3)n1 [Compound 605, (R)-3-(5-chloro-2-methyl-2H-1,2,3-triazol-4-yl)-6-(6-((2,2,7,7-tetramethylazepan-4-yl)oxy)pyridazin-3-yl)-6,7-dihydro-5H-pyrrolo[3,4-b]pyridin-5-one] | 82 | 56
Cn1ncc(-c2cnc3c(c2)C(=O)N(c2ccc(S[C@H]4C[C@]5(C)CC[C@](C)(C4)N5)nn2)C3)n1 [Compound 606, 6-(6-(((1R,3s,5S)-1,5-dimethyl-8-azabicyclo[3.2.1]octan-3-yl)thio)pyridazin-3-yl)-3-(2-methyl-2H-1,2,3-triazol-4-yl)-6,7-dihydro-5H-pyrrolo[3,4-b]pyridin-5-one] | 57 | 25
Cn1nc(Cl)c(-c2cnc3c(c2)C(=O)N(c2ccc(O[C@H]4CCC(C)(C)NC(C)(C)C4)nn2)C3)n1 [Compound 607, (S)-3-(5-chloro-2-methyl-2H-1,2,3-triazol-4-yl)-6-(6-((2,2,7,7-tetramethylazepan-4-yl)oxy)pyridazin-3-yl)-6,7-dihydro-5H-pyrrolo[3,4-b]pyridin-5-one] | 72 | 9
Cn1cc(-c2cnc3c(c2)C(=O)N(c2ccc(OC4CC(C)(C)NC(C)(C)C4)nn2)C3)c(Cl)n1 [Compound 608, 3-(3-chloro-1-methyl-1H-pyrazol-4-yl)-6-(6-((2,2,6,6-tetramethylpiperidin-4-yl)oxy)pyridazin-3-yl)-6,7-dihydro-5H-pyrrolo[3,4-b]pyridin-5-one] | 86 | 20
CN(c1ccc(N2Cc3ncc(-c4cn(C)nc4Cl)cc3C2=O)nn1)[C@H]1C[C@]2(C)CC[C@](C)(C1)N2 [Compound 609, 3-(3-chloro-1-methyl-1H-pyrazol-4-yl)-6-(6-(((1R,3s,5S)-1,5-dimethyl-8-azabicyclo[3.2.1]octan-3-yl)(methyl)amino)pyridazin-3-yl)-6,7-dihydro-5H-pyrrolo[3,4-b]pyridin-5-one] | 39 | 7
Cn1nc(Cl)c(-c2cnc3c(c2)C(=O)N(c2ccc(S[C@H]4C[C@]5(C)CC[C@](C)(C4)N5)nn2)C3)n1 [Compound 610, 3-(5-chloro-2-methyl-2H-1,2,3-triazol-4-yl)-6-(6-(((1R,3s,5S)-1,5-dimethyl-8-azabicyclo[3.2.1]octan-3-yl)thio)pyridazin-3-yl)-6,7-dihydro-5H-pyrrolo[3,4-b]pyridin-5-one] | 93 | 66
Cc1nn(C)nc1-c1cnc2c(c1)C(=O)N(c1ccc(S[C@H]3C[C@]4(C)CC[C@](C)(C3)N4)nn1)C2 [Compound 611, 3-(2,5-dimethyl-2H-1,2,3-triazol-4-yl)-6-(6-(((1R,3s,5S)-1,5-dimethyl-8-azabicyclo[3.2.1]octan-3-yl)thio)pyridazin-3-yl)-6,7-dihydro-5H-pyrrolo[3,4-b]pyridin-5-one] | 90 | 79
CN(c1ccc(N2Cc3ncc(-c4nnn(C)n4)cc3C2=O)nn1)[C@H]1C[C@]2(C)CC[C@](C)(C1)N2 [Compound 612, 6-(6-(((1R,3s,5S)-1,5-dimethyl-8-azabicyclo[3.2.1]octan-3-yl)(methyl)amino)pyridazin-3-yl)-3-(2-methyl-2H-tetrazol-5-yl)-6,7-dihydro-5H-pyrrolo[3,4-b]pyridin-5-one] | 109 | 15
Cc1nn(C)nc1-c1cnc2c(c1)C(=O)N(c1ccc(N3C[C@@H](C)NC[C@@H]3C)nn1)C2 [Compound 613, 3-(2,5-dimethyl-2H-1,2,3-triazol-4-yl)-6-(6-((2S,5R)-2,5-dimethylpiperazin-1-yl)pyridazin-3-yl)-6,7-dihydro-5H-pyrrolo[3,4-b]pyridin-5-one] | 130 | 91
C[C@@H]1CN(c2ccc(N3Cc4ncc(-c5nn(C)nc5Cl)cc4C3=O)nn2)[C@@H](C)CN1 [Compound 614, 3-(5-chloro-2-methyl-2H-1,2,3-triazol-4-yl)-6-(6-((2S,5R)-2,5-dimethylpiperazin-1-yl)pyridazin-3-yl)-6,7-dihydro-5H-pyrrolo[3,4-b]pyridin-5-one] | 107 | 79
Cc1nn(C)nc1-c1cnc2c(c1)C(=O)N(c1ccc(N3CCN4CCC[C@H]4C3)nn1)C2 [Compound 615, (S)-3-(2,5-dimethyl-2H-1,2,3-triazol-4-yl)-6-(6-(hexahydropyrrolo[1,2-a]pyrazin-2(1H)-yl)pyridazin-3-yl)-6,7-dihydro-5H-pyrrolo[3,4-b]pyridin-5-one] | 81 | 53
Cc1nn(C)nc1-c1cnc2c(c1)C(=O)N(c1ccc(N3CCC[C@@H](NC(C)(C)C)C3)nn1)C2 [Compound 616, (R)-6-(6-(3-(tert-butylamino)piperidin-1-yl)pyridazin-3-yl)-3-(2,5-dimethyl-2H-1,2,3-triazol-4-yl)-6,7-dihydro-5H-pyrrolo[3,4-b]pyridin-5-one] | 100 | 67
Cn1nc(Cl)c(-c2cnc3c(c2)C(=O)N(c2ccc(N4CCC[C@@H](NC(C)(C)C)C4)nn2)C3)n1 [Compound 617, (R)-6-(6-(3-(tert-butylamino)piperidin-1-yl)pyridazin-3-yl)-3-(5-chloro-2-methyl-2H-1,2,3-triazol-4-yl)-6,7-dihydro-5H-pyrrolo[3,4-b]pyridin-5-one] | 93 | 70
CN(C)C1CCN(c2ccc(N3Cc4ncc(-c5nn(C)nc5Cl)cc4C3=O)nn2)CC1 [Compound 618, 3-(5-chloro-2-methyl-2H-1,2,3-triazol-4-yl)-6-(6-(4-(dimethylamino)piperidin-1-yl)pyridazin-3-yl)-6,7-dihydro-5H-pyrrolo[3,4-b]pyridin-5-one] | 83 | 68
Cn1nc(Cl)c(-c2cnc3c(c2)C(=O)N(c2ccc(OC4CC(C)(C)NC5(CCC5)C4)nn2)C3)n1 (stereo not shown) [Compound 619, 3-(5-chloro-2-methyl-2H-1,2,3-triazol-4-yl)-6-(6-((6,6-dimethyl-5-azaspiro[3.5]nonan-8-yl)oxy)pyridazin-3-yl)-6,7-dihydro-5H-pyrrolo[3,4-b]pyridin-5-one] | 80 | 10
Cn1nc(Cl)c(-c2cnc3c(c2)C(=O)N(c2ccc(N4CCN5CCC[C@H]5C4)nn2)C3)n1 [Compound 620, (S)-3-(5-chloro-2-methyl-2H-1,2,3-triazol-4-yl)-6-(6-(hexahydropyrrolo[1,2-a]pyrazin-2(1H)-yl)pyridazin-3-yl)-6,7-dihydro-5H-pyrrolo[3,4-b]pyridin-5-one] | 93 | 55
